From PubChem BioAssay (NCI)
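Step 1: Grow cells in 96-well plates. Step 2: Expose to compound for 48 hours at 5 concentrations. Step 3: Interpolate endpoints linearly; if unreached, use highest concentration. The concentration for 50% growth inhibition is given as GI50. TGI: total growth inhibition.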

Tests used:
Test in all cases: NCI tumour cell line growth inhibition, 48 h
[1] = test system: HCT-116 colon
[2] = test system: HCC-2998 colon
[3] = test system: MOLT-4 leukemia
[4] = test system: SF-295 CNS
[5] = test system: HT29 colon
[6] = test system: UACC-257 melanoma
[7] = test system: NCI-H23 lung
[8] = test system: NCI-H226 lung
[9] = test system: NCI-H522 lung
[10] = test system: CAKI-1 renal
[11] = test system: HL-60(TB) leukemia
[12] = test system: RPMI-8226 leukemia
[13] = test system: A549 NSCLC
[14] = test system: HS 578T breast
[15] = test system: HCT-15 colon
[16] = test system: ACHN renal
[17] = test system: IGROV1 ovarian
[18] = test system: SNB-75 CNS
[19] = test system: T-47D breast
[20] = test system: OVCAR-4 ovarian
[21] = test system: SF-539 CNS
[22] = test system: NCI/ADR-RES ovarian
[23] = test system: EKVX NSCLC
[24] = test system: DU-145 prostate
[25] = test system: SK-MEL-2 melanoma
[26] = test system: MCF7 breast
[27] = test system: COLO 205 colon
[28] = test system: SF-268 CNS

In the case of `Clc1ccc(/C=N/Nc2ncnc3sc4c(c23)CCN(Cc2ccccc2)C4)cc1`, the TGI [1] is reported as 10.4 µM, the GI50 [2] is reported as 10.7 µM and the TGI [2] is reported as over 100 µM. For the same compound, the GI50 [3] was 4.53 µM, the TGI [3] was 34.5 µM and the GI50 [4] was 4.19 µM. For the same compound, the TGI [4] was 21.6 µM, the GI50 [5] was 3.37 µM and the TGI [5] was 13.7 µM. It also gave a GI50 [6] of 9.6 µM, a TGI [6] of 76.9 µM and a GI50 [7] of 12 µM. For the same compound, the TGI [7] was over 100 µM, the GI50 [8] was 2.31 µM and the TGI [8] was 7.41 µM. The GI50 [9] was 23.9 µM, the TGI [9] was over 100 µM and the GI50 [10] was over 100 µM. It also gave a TGI [10] of over 100 µM, a GI50 [11] of 5.59 µM and a TGI [11] of 43 µM. The GI50 [12] was 5.39 µM, the TGI [12] was 84.9 µM and the GI50 [13] was 12.1 µM. It also gave a TGI [13] of over 100 µM, a GI50 [14] of 6.33 µM and a TGI [14] of over 100 µM. The GI50 [15] was 4.04 µM, the TGI [15] was 25.2 µM and the GI50 [16] was 15.8 µM. It also gave a TGI [16] of over 100 µM, a GI50 [17] of 20.1 µM and a TGI [17] of over 100 µM. For the same compound, the GI50 [18] was 3.21 µM, the TGI [18] was 41.2 µM and the GI50 [19] was 22.5 µM. The TGI [19] was over 100 µM, the GI50 [20] was 2.76 µM and the TGI [20] was 7.52 µM. It also gave a GI50 [21] of 4.1 µM, a TGI [21] of 18.2 µM and a GI50 [22] of 2.34 µM. The TGI [22] was 5.84 µM, the GI50 [23] was 65.6 µM and the TGI [23] was over 100 µM. It also gave a GI50 [24] of 5.67 µM, a TGI [24] of over 100 µM and a GI50 [25] of 16 µM. For the same compound, the TGI [25] was 42.7 µM, the GI50 [26] was 2.98 µM and the TGI [26] was 15 µM. The GI50 [27] was 3.52 µM, the TGI [27] was 12.9 µM and the GI50 [28] was 8.38 µM. For the same compound, the TGI [28] was over 100 µM.
